The test system of data set [1] is 1:1 mixture of E. coli CVCC195 and S. aureus ATCC43300. Format: cell-based, Escherichia coli; Staphylococcus aureus. Particulars: Mean. On the procedure:
The selectivity of A6, G6, and N6 against Gram-negative and Gram-positive bacteria was determined using the mixed-culture bactericidal kinetics assay, as described in the Supplementary Information.
27 Supplementary Figure 6. Killing selectivity of peptides. A 1:1 mixture of E. coli (Ec) and S. aureus
28 (Sa) was treated with A6 (16 μg per ml), G6 (16 μg per ml) or N6 (2 μg per ml) for 1, 3 and 5 min,
29 respectively; survivors were counted in MH plates. The change in relative ratio of E. coli to S. aureus
30 (Ec/Sa) after treatment with A6, G6 or N6 is shown.
31 independent experiments).
(§1) (1 picture or pasted object on this page, not shown here)
102 Supplementary Methods
103 Mixed-culture bactericidal kinetics of SCPs-A6 and G6. The mid-exponential phage E. coli
104 CVCC195 and S. aureus ATCC43300 cultures were diluted to 2 × 10^5 CFU per ml, mixed (1:1) and
105 added into the 96-well plates. A6, G6 or N6 were added into each well of plates to final concentration
106 of 16 (A6 and G6) or 2 (N6) μg per ml in a 200-μl total volume. An aliquot was removed at 1, 3 and 5
107 min, respectively, and survivors were counted on MH solid plates1–3. […]

The next data set concerns MDR E. coli CVCC195. Nature of the data set: pH stability, residual antibacterial activity (inhibition zone). The following applies: inhibition zone vs E. coli CVCC195, mean of n = 3. Format: physicochemical, Escherichia coli.
In a further data set the test system is pepsin. Format: in vitro ADME.
The next data set deals with E. coli CVCC195. Format: cell-based, Escherichia coli. The following applies: E. coli CVCC195. On the procedure:
Bacterial resistance against the peptides was assessed via the MIC assays. […] After 16–18 h of incubation at 37 °C, cells from the second highest concentration showing visible growth were used to inoculate the subsequent cultures. The MIC values for drug passage cultures were obtained as described above. This process was repeated for 30 d.

Data set [2] relates to TNF-α, IL-6 and IL-10 in LPS-stimulated RAW 264.7 cells. Kind of data set: Cytokines in LPS-stimulated macrophages (ELISA). Format: cell-based, mouse. On the set-up: unit not given here. On the procedure: Macrophages RAW 264.7 were incubated with LPS (0.1 and 1 μg per ml) that was dissolved in serum-free DMEM medium, and then were treated with A6, G6, N6, or PMB (20 μM) alone in 24-well plates (2.5 × 10^5 cells per well). The cells incubated with serum-free DMEM and LPS were used as a control. After treatment for 2 h, the supernatants were collected and assessed for TNF-α, IL-6, and IL-10 by using the ELISA kits in the Jiaxuan Biotech. Co. Ltd. (Beijing, China).
73 Supplementary Figure 15. Effects of SCPs on cytokines in RAW 264.7 ells. Cells were incubated with 0.1 μg per
74 ml (a) or 1 μg per ml (b) LPS and 20 μM A6, G6, N6 or PMB for 2 h. The levels of TNF-α, IL-6 and IL-10 in
75 supernatants were measured using ELISA. The data are given as the mean ± SD (n = 3 independent experiments).
76 Different lower case letters indicate a significant difference between two groups (p < 0.05).
as §1
Background: In an ELISA, binding on a coated surface is turned into a signal by an enzyme label.

In a further data set the test system is E. coli LPS. Nature of the data set: Sepsis mouse model, survival after lethal LPS challenge. The following applies: mice, LPS 13.5 mg per kg i.p., 7 d, n = 5; for survival rate: 0.0625 μmol per kg; for mouse survival: 0.125 μmol per kg. Format: in vivo, ICR mice. On the procedure: The mouse survival was recorded for 7 d. The mice injected with LPS or saline were used as negative or blank controls, respectively.

The subject of data set [3] is Intestinal alkaline phosphatase (IAP). Nature of the data set: IAP level in duodenum of LPS-challenged mice. The following applies: duodenum homogenate, peptides 0.25 μmol per kg, PMB 10 μmol per kg, LPS alone 10.2985, CK 14.2257, n = 3. Format: in vivo. On the procedure:
The mice were intraperitoneally injected with LPS at an absolute LD100 and then were treated with 0.25 μmol per kg peptides (A6, G6 and N6) or 10 μmol per kg PMB at 0.5 h after challenge. The mice were sacrificed at 2 h and the sera were collected to detect inflammatory cytokines (including TNF-α, IL-6 and IL-10) using ELISA kits. To visualize IAP activity, the duodenum was rapidly excised from the mice and was homogenized; the IAP levels in the superpants were detected as described in the Supplementary Information. […]
114 Effects of SCPs on inflammatory cytokines and IAP. The serum sample (50 μl) was added into
115 each well of the plate; 50 μl of TNF-α, IL-I, IL-10 or IAP standard, control and test samples were then
116 added to each well of the plate, followed by placing the latex film on the shaker and incubation for 2
117 h at room temperature. After discarding the liquid in the well, the enzyme labeling plate was placed in
118 a 400 μl washing solution in the washing machine for 4 times; the enzyme labeling plate is inverted
119 and tapped on a clean paper towel so that there was no residual liquid in each hole . Mouse TNF-α，
120 IL-I，IL10 or IAP Conjugate (HRP Conjugate Detection Ab) working solution (100 μl) was added to
121 each well of the plate (diluted 1:100 before the test); the latex film was placed on the shaker and
122 incubated for 2 h at room temperature. After discarding the liquid in the well, the enzyme labeling
123 plate was placed in a 400 μl washing solution in the washing machine for 4 times, then the enzyme
124 labeling plate is inverted, and tapped on a clean paper towel so that there is no residual liquid in each
125 hole. Substrate Solution (100 μl) was added to each well of the plate and incubated at room
126 temperature for 30 min in the dark. Finally, 100 μl of Stop Solution (2N sulfuric acid solution) was
127 added to each well of the plate and gently mixed the plate to stop the reaction. The optical density
128 value was read by placing the microplate in a microplate reader for 30 min with the reading
129 wavelength of 450 nm and the calibration wavelength of 570 nm.
131 1. Kaplan, C. W., et al. Selective membrane disruption: mode of action of C16G2, a specifically
133 2. Eckert, R., et al. Adding selectivity to antimicrobial peptides: rational design of a multidomain
134 peptide against Pseudomonas spp. Antimicrob Agents Chemother. 50(4), 1480–1488 (2006).
135 3. Eckert, R., et al. Targeted killing of Streptococcus mutans by a pheromone-guided "smart"

Setting [4] is: RAW 264.7 cells incubated with 0.1 μg per ml LPS.
The mark [5] stands for this setting: RAW 264.7 cells incubated with 1 μg per ml LPS.

Like-named read-outs stand apart in the source and are kept apart here. Where a SMILES comes first, the peptide text is derived from it. Bridges are numbered along the chain shown (N, C = ends).

Description for MDR E. coli CVCC195: (§2) The N6, A6, and G6 solutions were treated at different temperatures (20–100 °C) for 1 h, dissolved and incubated at different pH values (2–10) for 3 h, or incubated with trypsin or pepsin for 4 h. The inhibition zone diameters were measured after incubation at 37 °C for 18–24 h.
Description for pepsin: as §2

For `CC(C)[C@@H]1NC(=O)CNC(=O)[C@H](CC(N)=O)NC(=O)[C@H](CCCNC(=N)N)NC(=O)[C@H](Cc2ccc(O)cc2)NC(=O)[C@H](C(C)C)NC(=O)[C@@H](NC(=O)[C@@H](NC(=O)[C@H](CC(N)=O)NC(=O)[C@H](Cc2c[nH]c3ccccc23)NC(=O)[C@H](C)NC(=O)[C@H](Cc2ccccc2)NC(=O)CNC(=O)[C@H](CO)NC(=O)CNC(=O)CNC(=O)CNC(=O)CNC(=O)[C@H](CCCCN)NC(=O)[C@H](Cc2ccccc2)NC(=O)[C@H](Cc2ccccc2)NC(=O)[C@H](CO)NC(=O)[C@H](C)NC(=O)[C@H](CCCNC(=N)N)NC(=O)[C@@H](NC(=O)[C@H](CCCCN)NC(=O)[C@H](Cc2c[nH]c3ccccc23)NC(=O)[C@H](CCCNC(=N)N)NC(=O)CNC(=O)[C@H](CCC(N)=O)NC(=O)[C@@H](NC(=O)[C@@H](N)CCCNC(=N)N)C(C)C)C(C)C)C(C)C)CSSC[C@@H](C(=O)N[C@@H](Cc2c[nH]cn2)C(=O)N[C@@H](CCCNC(=N)N)C(=O)N[C@@H](CCCNC(=N)N)C(=O)N[C@@H](C)C(=O)N[C@@H](CC(N)=O)C(=O)O)NC(=O)[C@H](C(C)C)NC(=O)[C@H](CCCNC(=N)N)NC1=O` [G6] (H-RVQGRWKVRASFFKGGGGSGFAWNVCVYRNGVRVCHRRAN-OH; disulfide 26-35), the results for the “killing selectivity of peptides” value in data set [1] (time 0 min), in data set [1] (time 1 min) and in data set [1] (time 3 min) were 0.9569, 0.5118 and 0.1311, respectively. Also, the “antibacterial activity after pH treatment (inhibition zone diameter), Mean” value in the data set on MDR E. coli CVCC195 (pH=2 for 3 h) came out at 1.407; with MDR E. coli CVCC195 (pH=4 for 3 h) it was 1.44; with MDR E. coli CVCC195 (pH=6 for 3 h) it was 1.4; with MDR E. coli CVCC195 (pH=8 for 3 h), 1.383; in the data set with MDR E. coli CVCC195 (pH=10 for 3 h) it was 1.387. For the same molecule, in the data set with pepsin, the “antibacterial activity after pepsin (inhibition zone diameter), Mean” value came to 1.607. Also, the “antibacterial activity without enzyme (inhibition zone diameter), Mean” value with pepsin came to 1.439. The “change of MIC over the course of 30 serial passages” value in the data set on E. coli CVCC195 is on record as “hardly changed”. For the same molecule, the “IL-6 Mean” value in data set [2] (setting [4]) worked out at 280.633; in data set [2] (setting [5]), 352.733. Further, the “IL-10 Mean” value in data set [2] (setting [4]) turned out to be 106.633; in data set [2] (setting [5]) it was 142.667. Further, the “TNFα Mean” value stood at 481.5 in data set [2] (setting [4]) and 599.567 in data set [2] (setting [5]). The same molecule displayed a survival rate with E. coli LPS of 80%. This molecule showed a mouse survival in the data set with E. coli LPS of 100%. Moreover, the “IAP, Mean” value in data set [3] is reported as 11.4812.

Turning to “H-RVQGRWKVRASFFKEAAAKEAAAKGFAWNVCVYRNGVRVCHRRAN-OH (disulfide 31-40) [A6]”, the “killing selectivity of peptides” value in data set [1] (time 0 min) was found to be 0.9569; in data set [1] (time 1 min), 0.7697; in data set [1] (time 3 min), 0.8015; in data set [1] (time 5 min) it was 0.5904. In addition, the “antibacterial activity after pH treatment (inhibition zone diameter), Mean” value was 1.463 with MDR E. coli CVCC195 (pH=2 for 3 h); 1.443 in the data set with MDR E. coli CVCC195 (pH=4 for 3 h); 1.4 with MDR E. coli CVCC195 (pH=6 for 3 h); 1.41 with MDR E. coli CVCC195 (pH=8 for 3 h); 1.4 in the data set with MDR E. coli CVCC195 (pH=10 for 3 h). The “antibacterial activity after pepsin (inhibition zone diameter), Mean” value in the data set with pepsin worked out at 1.623. Besides, the “antibacterial activity without enzyme (inhibition zone diameter), Mean” value in the data set with pepsin is 1.456. Also, in the data set on E. coli CVCC195, the “change of MIC over the course of 30 serial passages” value is given as “hardly changed”. Besides, the “IL-6 Mean” value in data set [2] (setting [4]) was 246.9; in data set [2] (setting [5]), 216.667. The figures for the “IL-10 Mean” value in data set [2] (setting [4]) and in data set [2] (setting [5]) were 89.8 and 77.3667, respectively. Further, the “TNFα Mean” value is 410.667 in data set [2] (setting [4]) and 355.9 in data set [2] (setting [5]). In addition, the survival rate in the data set on E. coli LPS is reported as 60%. The same molecule showed a mouse survival in the data set on E. coli LPS of 100%. The “IAP, Mean” value in data set [3] is on record as 11.893.

These data come from article PMC6978316, “Development of chimeric peptides to facilitate the neutralisation of lipopolysaccharides during bactericidal targeting of multidrug-resistant Escherichia coli” (Communications Biology, 2020).
